From patent US20110262477A1 (priority 2008, published 2011)

Columns and labels:
[1] = test system: secreted 5′-nucleotidases from trophozoites of Trichomonas gallinae; conditions: Borges et al., 2007; cited from earlier work
[2] = target: T1, 5′-ecto nucleotidase (human homologue of bacterial AdsA) (Homo sapiens, UniProt P21589); conditions: cited from earlier work
T1 sequence (P21589 27-549): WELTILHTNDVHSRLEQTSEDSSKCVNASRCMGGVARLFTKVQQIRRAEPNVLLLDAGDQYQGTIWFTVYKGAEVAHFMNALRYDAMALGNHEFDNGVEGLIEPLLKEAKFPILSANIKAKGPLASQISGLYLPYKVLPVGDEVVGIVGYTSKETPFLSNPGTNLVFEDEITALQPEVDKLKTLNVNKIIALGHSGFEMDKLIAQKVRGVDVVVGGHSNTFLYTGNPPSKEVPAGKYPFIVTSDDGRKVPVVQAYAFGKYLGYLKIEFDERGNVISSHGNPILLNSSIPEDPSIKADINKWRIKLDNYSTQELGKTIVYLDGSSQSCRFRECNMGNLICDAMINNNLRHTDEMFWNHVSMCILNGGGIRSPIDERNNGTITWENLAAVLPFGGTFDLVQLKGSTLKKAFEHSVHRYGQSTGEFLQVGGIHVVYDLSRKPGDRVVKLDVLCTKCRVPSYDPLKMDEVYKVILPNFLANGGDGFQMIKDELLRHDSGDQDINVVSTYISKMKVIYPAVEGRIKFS

AdsA = type: biochemical, S. aureus
[3] = test system: adsA mutant staphylococci; assay: Survival of adsA staphylococci in rat blood with added adenosine (FIG. 17F); type: cell-based, S. aureus; conditions: addition of 1-100 μM adenosine
S. aureus = conditions: individual subunit vaccine antigens; none afforded complete protection; cited from earlier work
[4] = test system: Nc1ncnc2c1ncn2[C@@H]1O[C@H](COP(=O)(O)O)[C@@H](O)[C@H]1O; assay: purified protein, by the assay type; conditions: pH 7.5; 37.0 °C
[5] = test system: 5′-nucleotidases from snake venom; conditions: Uchino et al., 1986; cited from earlier work
[6] = target: T2, 5′-nucleotidases from rat liver membrane (Rattus norvegicus, UniProt P21588); conditions: Uchino et al., 1986; cited from earlier work
T2 sequence (P21588 29-551): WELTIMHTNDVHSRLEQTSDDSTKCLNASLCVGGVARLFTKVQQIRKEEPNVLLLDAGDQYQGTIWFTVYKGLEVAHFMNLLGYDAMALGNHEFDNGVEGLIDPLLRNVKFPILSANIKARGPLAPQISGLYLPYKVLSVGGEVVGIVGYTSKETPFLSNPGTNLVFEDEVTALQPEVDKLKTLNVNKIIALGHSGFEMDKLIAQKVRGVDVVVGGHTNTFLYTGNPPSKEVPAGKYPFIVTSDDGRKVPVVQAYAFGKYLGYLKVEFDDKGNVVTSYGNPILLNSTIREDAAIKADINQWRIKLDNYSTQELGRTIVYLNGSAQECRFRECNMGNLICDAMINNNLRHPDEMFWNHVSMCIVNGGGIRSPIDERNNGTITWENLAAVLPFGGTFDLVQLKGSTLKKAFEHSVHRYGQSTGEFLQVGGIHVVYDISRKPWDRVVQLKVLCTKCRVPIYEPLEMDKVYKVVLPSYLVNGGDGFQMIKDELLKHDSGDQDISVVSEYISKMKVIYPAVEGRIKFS

S. aureus Newman = assay: Eap, Emp vaccination, murine renal abscess model (FIG. 5); conditions: for histological lesions: kidneys of immunized mice, PBS mock 4/5, FIG. 5E

In the case of `Nc1ncnc2c1ncn2[C@@H]1O[C@H](COP(=O)(O)CP(=O)(O)O)[C@@H](O)[C@H]1O` [AOPCP, α,β-methylene adenosine 5′-diphosphate], the “inhibition of secreted 5′-nucleotidases” value [1] is given as “does not inhibit” and the “inhibition of 5′-ecto nucleotidase” value [2] is given as “inhibitor”.

With `O=S(=O)([O-])[O-].[Cu+2]` [CuSO4] the “inhibition of adenosine synthase activity” value (AdsA) was “completely inhibited”.

With `[Cl-].[Cl-].[Zn+2]` [ZnCl2] the “inhibition of adenosine synthase activity” value (AdsA) was “completely inhibited”.

With `Nc1ncnc2c1ncn2[C@@H]1O[C@H](CO)[C@@H](O)[C@H]1O` [adenosine] the “survival of adsA mutant staphylococci in blood” value [3] was “dose-dependent increase in the survival”.

In the case of “IsdB: purified S. aureus sortase A substrate surface protein used as subunit vaccine antigen”, the “reduction in bacterial load” value (S. aureus) is listed as “significant reduction in bacterial load”.

For “SdrD: purified S. aureus sortase A substrate surface protein used as subunit vaccine antigen”, the “reduction in bacterial load” value (S. aureus) is given as “significant reduction in bacterial load”.

In the case of “SdrE: purified S. aureus sortase A substrate surface protein used as subunit vaccine antigen”, the “reduction in bacterial load” value (S. aureus) is listed as “significant reduction in bacterial load”.

For “Staphylococcus aureus adenosine synthase A (AdsA, SasH), purified soluble recombinant form AdsA1-400 (from GST-AdsA expressed in Escherichia coli), SEQ ID NO:36 (Staphylococcus aureus subsp. aureus NCTC 8325)”, the Km [4] was 0.044 µM.

For melanocidins A and B, the “inhibitory activity against 5′-nucleotidases” value (shortened to “inhibitory activity”) [5] is listed as “potent inhibitory activity” and the “inhibitory activity” value [6] is listed as “potent inhibitory activity”.

For nucleoticidin, the “inhibitory activity” value [5] is given as “potent inhibitory activity” and the “inhibitory activity” value [6] is given as “potent inhibitory activity”.

B1: IsdA: purified S. aureus sortase A substrate surface protein used as subunit vaccine antigen (protein, listed as Staphylococcus sp.)
chain: MTKHYLNSKYQSEQRSSAMKKITMGTASIILGSLVYIGADSQQVNAATEATNATNNQSTQVSQATSQPINFQVQKDGSSEKSHMDDYMQHPGKVIKQNNKYYFQTVLNNASFWKEYKFYNANNQELATTVVNDNKKADTRTINVAVEPGYKSLTTKVHIVVPQINYNHRYTTHLEFEKAIPTLADAAKPNNVKPVQPKPAQPKTPTEQTKPVQPKVEKVKPTVTTTSKVEDNHSTKVVSTDTTKDQTKTQTAHTVKTAQTAQEQNKVQTPVKDVATAKSESNNQAVSDNKSQQTNKVTKHNETPKQASKAKELPKTGLTSVDNFISTVAFATLALLGSLSLLLFKRKESK
In the case of B1, the “reduction in bacterial load” value (S. aureus) is given as “significant reduction in bacterial load”.

B2: Eap: recombinant His-tagged staphylococcal envelope associated protein Eap (SEQ ID NO:4) purified from E. coli, vaccine antigen (protein, listed as Staphylococcus aureus)
chain: MKFKSLITTTLALGVLASTGANFNNNEASAAAKPLDKSSSSLHHGYSKVHVPYAITVNGTSQNILSSLTFNKNQNISYKDLEDRVKSVLKSDRGISDIDLRLSKQAKYTVYFKNGTKKVIDLKAGIYTADLINTSEIKAININVDTKKQVEDKKKDKANYQVPYTITVNGTSQNILSNLTFNKNQNISYKDLEDKVKSVLESNRGITDVDLRLSKQAKYTVNFKNGTKKVIDLKSGIYTANLINSSDIKSININVDTKKHIENKAKRNYQVPYSINLNGTSTNILSNLSFSNKPWTNYKNLTSQIKSVLKHDRGISEQDLKYAKKAYYTVYFKNGGKRILQLNSKNYTANLVHAKDVKRIEITVKTGTKAKADRYVPYTIAVNGTSTPILSDLKFTGDPRVGYKDISKKVKSVLKHDRGIGERELKYAKKATYTVHFKNGTKKVININSNISQLNLLYVQDIKKIDIDVKTGTKAKADSYVPYTIAVNGTSTPILSKLKISNKQLISYKYLNDKVKSVLKSERGISDLDLKFAKQAKYTVYFKNGKKQVVNLKSDIFTPNLFSAKDIKKIDIDVKQYTKSKKNK
modifications: His-tag
With B2 the histological lesions (S. aureus Newman) was 1/5.

B3: Emp: recombinant His-tagged staphylococcal envelope associated protein Emp (SEQ ID NO:2) purified from E. coli, vaccine antigen (protein, listed as Staphylococcus aureus)
chain: MKKKLLVLTMSTLFATQIMNSNHAKASVTESVDKKFVVPESGINKIIPAYDEFKNSPKVNVSNLTDNKNFVASEDKLNKIADSSAASKIVDKNFVVPESKLGNIVPEYKEINNRVNVATNNPASQQVDKHFVAKGPEVNRFITQNKVNHHFITTQTHYKKVITSYKSTHVHKHVNHAKDSINKHFIVKPSESPRYTHPSQSLIIKHHFAVPGYHAHKFVTPGHASIKINHFCVVPQINSFKVIPPYGHNSHRMHVPSFQNNTTATHQNAKVNKAYDYKYFYSYKVVKGVKKYFSFSQSNGYKIGKPSLNIKNVNYQYAVPSYSPTHYVPEFKGSLPAPRV
modifications: His-tag
For B3, the “titers of reactive IgG” value (S. aureus Newman; ELISA IgG titers from vaccinated mice, FIG. 5D) was > 64,000 and the histological lesions (S. aureus Newman) was 1/5.
